Experimental data published in ChEMBL document CHEMBL3885881, “DrugMatrix”.

Organism: Rattus norvegicus
Assay: DrugMatrix - Regimen: Daily Repeat
Type: toxicity, organism-based, Sprague-Dawley
Parameters: regimen Daily Repeat, gender Male, age 6-8 weeks
Details: in vivo, po, route oral GAVAGE, […]; for ABSOLUTE BASOPHIL / ABSOLUTE EOSINOPHIL / ABSOLUTE LYMPHOCYTE / ABSOLUTE MONOCYTE / ABSOLUTE SEGMENTED NEUTROPHIL / BASOPHIL / EOSINOPHIL / ERYTHROCYTE COUNT / HEMATOCRIT / HEMOGLOBIN / LEUKOCYTE COUNT / LYMPHOCYTE / MEAN CORPUSCULAR HEMOGLOBIN / MEAN CORPUSCULAR HEMOGLOBIN CONCENTRATION / MEAN CORPUSCULAR VOLUME / MONOCYTE / NEUTROPHIL / NUCLEATED RED BLOOD CELLS / PLATELET COUNT: tissue Blood; for ALANINE AMINOTRANSFERASE / ALBUMIN / ALKALINE PHOSPHATASE / ASPARTATE AMINOTRANSFERASE / BLOOD UREA NITROGEN / CARBON DIOXIDE / CHLORIDE / CHOLESTEROL / CREATINE PHOSPHOKINASE / CREATININE / GLUCOSE / LACTATE DEHYDROGENASE / LIPASE / PHOSPHORUS / POTASSIUM / SODIUM / TOTAL BILIRUBIN / TOTAL PROTEIN: tissue Plasma
[1] = 20 mg/kg, 72 h, dose level Low, time 3 day
[2] = 20 mg/kg, 120 h, dose level Low, time 5 day
[3] = 210 mg/kg, 72 h, dose level High, time 3 day
[4] = 210 mg/kg, 120 h, dose level High, time 5 day

## CN[C@H]1CC[C@@H](c2ccc(Cl)c(Cl)c2)c2ccccc21 [SERTRALINE]
[1]
  ABSOLUTE BASOPHIL: 0 CELLS/uL
  ABSOLUTE EOSINOPHIL: 28.33 CELLS/uL
  ABSOLUTE LYMPHOCYTE: 10624.33 CELLS/uL
  ABSOLUTE MONOCYTE: 86.67 CELLS/uL
  ABSOLUTE SEGMENTED NEUTROPHIL: 1294 CELLS/uL
  BASOPHIL: 0%
  EOSINOPHIL: 0.33%
  ERYTHROCYTE COUNT: 5.85 x10E6/uL
  HEMATOCRIT: 36.57%
  HEMOGLOBIN: 14.27 G/DL
  LEUKOCYTE COUNT: 12.03 x10E3/uL
  LYMPHOCYTE: 87.67%
  MEAN CORPUSCULAR HEMOGLOBIN: 24.37 pg
  MEAN CORPUSCULAR HEMOGLOBIN CONCENTRATION: 39.03 G/DL
  MEAN CORPUSCULAR VOLUME: 62.47 fL
  MONOCYTE: 0.67%
  NEUTROPHIL: 11.33%
  NUCLEATED RED BLOOD CELLS: 0 /100WBC
  PLATELET COUNT: 1161.67 x10E3/uL
  ALANINE AMINOTRANSFERASE: 70.33 u/L
  ALBUMIN: 4.23 G/DL
  ALKALINE PHOSPHATASE: 384.33 u/L
  ASPARTATE AMINOTRANSFERASE: 83.33 u/L
  BLOOD UREA NITROGEN: 14 mg/dL
  CARBON DIOXIDE: 29.67 mmol/L
  CHLORIDE: 103 MEQ/L
  CHOLESTEROL: 79 mg/dL
  CREATINE PHOSPHOKINASE: 163 u/L
  CREATININE: 0.23 mg/dL
  GLUCOSE: 158 mg/dL
  LACTATE DEHYDROGENASE: 155 u/L
  LIPASE: 11 u/L
  PHOSPHORUS: 12.33 mg/dL
  POTASSIUM: 6.97 MEQ/L
  SODIUM: 147.8 MEQ/L
  TOTAL BILIRUBIN: 0.17 mg/dL
  TOTAL PROTEIN: 5.57 G/DL
[2]
  ABSOLUTE BASOPHIL: 0 CELLS/uL
  ABSOLUTE EOSINOPHIL: 46.67 CELLS/uL
  ABSOLUTE LYMPHOCYTE: 12898.33 CELLS/uL
  ABSOLUTE MONOCYTE: 0 CELLS/uL
  ABSOLUTE SEGMENTED NEUTROPHIL: 955 CELLS/uL
  BASOPHIL: 0%
  EOSINOPHIL: 0.33%
  ERYTHROCYTE COUNT: 5.71 x10E6/uL
  HEMATOCRIT: 34.57%
  HEMOGLOBIN: 13.57 G/DL
  LEUKOCYTE COUNT: 13.9 x10E3/uL
  LYMPHOCYTE: 92.33%
  MEAN CORPUSCULAR HEMOGLOBIN: 23.83 pg
  MEAN CORPUSCULAR HEMOGLOBIN CONCENTRATION: 39.27 G/DL
  MEAN CORPUSCULAR VOLUME: 60.73 fL
  MONOCYTE: 0%
  NEUTROPHIL: 7.33%
  NUCLEATED RED BLOOD CELLS: 0 /100WBC
  PLATELET COUNT: 913 x10E3/uL
  ALANINE AMINOTRANSFERASE: 60.33 u/L
  ALBUMIN: 4.27 G/DL
  ALKALINE PHOSPHATASE: 427 u/L
  ASPARTATE AMINOTRANSFERASE: 85 u/L
  BLOOD UREA NITROGEN: 13.67 mg/dL
  CARBON DIOXIDE: 25.33 mmol/L
  CHLORIDE: 103.33 MEQ/L
  CHOLESTEROL: 77.67 mg/dL
  CREATINE PHOSPHOKINASE: 211 u/L
  CREATININE: 0.18 mg/dL
  GLUCOSE: 164.33 mg/dL
  LACTATE DEHYDROGENASE: 121.33 u/L
  LIPASE: 10.33 u/L
  PHOSPHORUS: 12.77 mg/dL
  POTASSIUM: 7.01 MEQ/L
  SODIUM: 147.5 MEQ/L
  TOTAL BILIRUBIN: 0.2 mg/dL
  TOTAL PROTEIN: 5.9 G/DL
[3]
  ABSOLUTE BASOPHIL: 0 CELLS/uL
  ABSOLUTE EOSINOPHIL: 0 CELLS/uL
  ABSOLUTE LYMPHOCYTE: 11258 CELLS/uL
  ABSOLUTE MONOCYTE: 82.33 CELLS/uL
  ABSOLUTE SEGMENTED NEUTROPHIL: 1226.33 CELLS/uL
  BASOPHIL: 0%
  EOSINOPHIL: 0%
  ERYTHROCYTE COUNT: 6.22 x10E6/uL
  HEMATOCRIT: 39.43%
  HEMOGLOBIN: 15.5 G/DL
  LEUKOCYTE COUNT: 12.57 x10E3/uL
  LYMPHOCYTE: 89.67%
  MEAN CORPUSCULAR HEMOGLOBIN: 24.93 pg
  MEAN CORPUSCULAR HEMOGLOBIN CONCENTRATION: 39.33 G/DL
  MEAN CORPUSCULAR VOLUME: 63.33 fL
  MONOCYTE: 0.67%
  NEUTROPHIL: 9.67%
  NUCLEATED RED BLOOD CELLS: 0 /100WBC
  PLATELET COUNT: 1225 x10E3/uL
  ALANINE AMINOTRANSFERASE: 53.67 u/L
  ALBUMIN: 4.33 G/DL
  ALKALINE PHOSPHATASE: 460.67 u/L
  ASPARTATE AMINOTRANSFERASE: 112 u/L
  BLOOD UREA NITROGEN: 16 mg/dL
  CARBON DIOXIDE: 28.33 mmol/L
  CHLORIDE: 101.33 MEQ/L
  CHOLESTEROL: 55.33 mg/dL
  CREATINE PHOSPHOKINASE: 286.67 u/L
  CREATININE: 0.22 mg/dL
  GLUCOSE: 117.33 mg/dL
  LACTATE DEHYDROGENASE: 163.33 u/L
  LIPASE: 10.33 u/L
  PHOSPHORUS: 11.53 mg/dL
  POTASSIUM: 6.21 MEQ/L
  SODIUM: 146.43 MEQ/L
  TOTAL BILIRUBIN: 0.1 mg/dL
  TOTAL PROTEIN: 5.97 G/DL
[4]
  ABSOLUTE BASOPHIL: 0 CELLS/uL
  ABSOLUTE EOSINOPHIL: 207 CELLS/uL
  ABSOLUTE LYMPHOCYTE: 18574.33 CELLS/uL
  ABSOLUTE MONOCYTE: 70.33 CELLS/uL
  ABSOLUTE SEGMENTED NEUTROPHIL: 1848.33 CELLS/uL
  BASOPHIL: 0%
  EOSINOPHIL: 1%
  ERYTHROCYTE COUNT: 6.11 x10E6/uL
  HEMATOCRIT: 37.3%
  HEMOGLOBIN: 14.97 G/DL
  LEUKOCYTE COUNT: 20.7 x10E3/uL
  LYMPHOCYTE: 89.67%
  MEAN CORPUSCULAR HEMOGLOBIN: 24.53 pg
  MEAN CORPUSCULAR HEMOGLOBIN CONCENTRATION: 40.13 G/DL
  MEAN CORPUSCULAR VOLUME: 61.1 fL
  MONOCYTE: 0.33%
  NEUTROPHIL: 9%
  NUCLEATED RED BLOOD CELLS: 0 /100WBC
  PLATELET COUNT: 1278.33 x10E3/uL
  ALANINE AMINOTRANSFERASE: 67 u/L
  ALBUMIN: 4.07 G/DL
  ALKALINE PHOSPHATASE: 368.33 u/L
  ASPARTATE AMINOTRANSFERASE: 101.67 u/L
  BLOOD UREA NITROGEN: 18 mg/dL
  CARBON DIOXIDE: 26 mmol/L
  CHLORIDE: 102.67 MEQ/L
  CHOLESTEROL: 74 mg/dL
  CREATINE PHOSPHOKINASE: 255.33 u/L
  CREATININE: 0.23 mg/dL
  GLUCOSE: 153 mg/dL
  LACTATE DEHYDROGENASE: 287.33 u/L
  LIPASE: 10 u/L
  PHOSPHORUS: 12.3 mg/dL
  POTASSIUM: 6.87 MEQ/L
  SODIUM: 146.47 MEQ/L
  TOTAL BILIRUBIN: 0.13 mg/dL
  TOTAL PROTEIN: 5.9 G/DL
